These results are taken from patent publication US10766857B2, “Compound having BLT inhibitory activity and composition, for preventing or treating inflammatory diseases, comprising same as active ingredient” (DONGGUK UNIVERSITY INDUSTRY-ACADEMIC COOPERATION FOUNDATION, priority 2015, dated 2020).

The experiment addresses T1, BLT1 (Homo sapiens, UniProt Q15722).
T1 construct: expressed in transfected cells; host or cells: CHO cells stably expressing BLT1 (CHO-BLT1)
As to the kind of experiment: LTB4-induced chemotactic motility, Transwell, CHO-BLT1 cells. It is filed as cell-based. The conditions noted are these: 10 μM pre-treatment, LTB4 10 nM. The method, then:
Chemotactic motility was analyzed using a Transwell chamber including a polycarbonate filter (8-μm pore size, Corning Costar) with a 6.5-mm diameter. Specifically, the lower surface of the filter was coated with 10 μg/mL fibronectin in a serum-free RPMI 1640 medium at 37° C. for 1 hour. The experiment was performed by placing the filter dried and coated with RPMI 1640 media containing various amounts of LTB4 in the lower wells of the Transwell chamber, and loading CHO cells stably expressing BLT1 and BLT2 into the upper wells containing serum-free RPMI 1640 media finally at 2×10^4 cells/100 μL. To evaluate the effect of inhibitors, the cells were pre-treated with each inhibitor for 30 minutes before dispensing. After the cells were cultured at 37° C. in 5% CO2 for 3 hours, the filters were fixed with methanol for 3 minutes, and stained with hematoxylin and eosin for 10 minutes. In the experiment, the cells were BLT2-expressing cells (CHO-BLT2 cells) and BLT1-expressing cells (CHO-BLT1 cells), and LY255283 and U75302 were used as positive controls for each type of the cells, and BLT2 ligand LTB4, (300 nM), BLT1 ligand LTB4 (10 nM), and lysophosphatidic acid (LPA; 100 nM) were used as comparative controls. The chemotactic motility was quantitatively analyzed by counting the cells on the lower side of the filter under an optical microscope (magnification, 200×). For each analysis, 6 fields were subjected to counting, each sample was analyzed twice, and the analysis was repeated three times.

The structures appear in SMILES notation.

T1 sequence (Q15722 whole entry, species assumed): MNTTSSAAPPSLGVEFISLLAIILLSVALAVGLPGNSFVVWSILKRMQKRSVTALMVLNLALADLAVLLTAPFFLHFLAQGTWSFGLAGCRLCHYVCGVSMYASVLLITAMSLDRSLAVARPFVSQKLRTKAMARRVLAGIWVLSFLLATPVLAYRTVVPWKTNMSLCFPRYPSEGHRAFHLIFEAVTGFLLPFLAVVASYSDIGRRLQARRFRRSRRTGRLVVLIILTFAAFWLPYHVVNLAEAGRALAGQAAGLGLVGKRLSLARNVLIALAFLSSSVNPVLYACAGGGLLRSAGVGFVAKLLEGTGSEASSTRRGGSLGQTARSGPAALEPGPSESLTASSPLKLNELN

Take `CCCCC(=O)N(CC#Cc1ccc(C(=O)N2CCN(C(C)C)CC2)cc1)c1ccccc1` [LMT-696, N-(3-(4-(4-isopropylpiperazine-1-carbonyl)phenyl)prop-2-ynyl)-N-phenylpentaneamide]: the “inhibitory effect on chemotactic motility” value is recorded as “did not exhibit the inhibitory effect”.
